We go through 21 molecules from US12404289B2 (Gilead Sciences, Inc., priority 2020, dated 2025).

Like-named read-outs stand apart in the source and are kept apart here.

Format in all cases: cell-based
One assay deals with SARS-CoV-2. Description: SARS-CoV-2 antiviral assay (A549-hACE2, Nano luciferase). Particulars: A549-hACE2 cells, SARS-CoV2-Nano, MOI 0.025, 48 h, Table 4, read-out: EC50 SARS CoV2.
Assay [1] concerns Respiratory syncytial virus (RSV) strain A2. Description: Hep-2 RSV2 384-well assay (EC50-HEP2-384). Particulars: HEp-2 cells, RSV A2, MOI=4, 4 days.
The subject of assay [2] is Respiratory syncytial virus recombinant with luciferase (RSV-Luc5). Description: microbe, parasite or virus in culture.
The test system of assay [3] is Recombinant respiratory syncytial virus expressing the firefly luciferase protein (RSV-Fluc). Nature of the assay: microbe, parasite or virus in culture. The following applies: Table 4.
The subject of assay [4] is Respiratory syncytial virus (RSV) strain A2. Description: RSV antiviral assay (HEp-2, 96 well). Particulars: Table 3.
[5] abbreviates: Severe acute respiratory syndrome coronavirus 2, 48 h.
Setting [6] is: human respiratory syncytial virus, NHBE, 72 h, read-out: EC50 RSVFluc NHBE 96, NHBE cells, RSV-Fluc, MOI of 0.1, three days, 96 well.
Setting [7] is: human respiratory syncytial virus, HEp-2, 72 h, read-out: EC50 RSVFluc-Hep2 384, HEp-2 cells, RSV-Luc5, MOI=0.5, 3 days, 384 well, Table 3.
Setting [8] is: read-out: EC50 RSVFluc-Hep2 384, HEp-2 cells, RSV-Luc5, MOI=0.5, 3 days, 384 well, Table 3.
Where [9] appears, read: read-out: EC50 RSVFluc NHBE 96, NHBE cells, RSV-Fluc, MOI of 0.1, three days, 96 well.
Where [10] appears, read: read-out: EC50 RSV HEP2 96, HEp-2 cells, RSV A2, MOI=4, 4 days, 96 well.

What is called EC50 is the concentration at which the effect is half-maximal. In the case of `CCC(CC)COC(=O)[C@H](C)NP(=O)(OC[C@H]1O[C@@](C#N)(c2ccc3c(N)ncnn23)[C@H](O)[C@@H]1O)Oc1ccc(C(C)(C)C)cc1` (single isomer, unassigned) [Example 13a], the EC50 was found to be 181 nM in the assay with SARS-CoV-2 (setting [5]); 91.2 nM in assay [1] (Table 1); 52.1 nM in assay [2] (human respiratory syncytial virus, HEp-2, 72 h, read-out: EC50 RSVFluc-Hep2 384, HEp-2 cells, RSV-Luc5, MOI=0.5, 3 days, 384 well, One-Glo, Table 1); 5.92 nM in assay [3] (setting [6]).
`C[C@H](NP(=O)(OC[C@H]1O[C@@](C#N)(c2ccc3c(N)ncnn23)[C@H](O)[C@@H]1O)Oc1ccccc1)C(=O)OC1CC2(CCC2)C1` (single isomer, unassigned) [Example 44a]: the EC50 was 102 nM in the assay with SARS-CoV-2 (setting [5]), 21.7 nM in assay [2] (setting [7]) and 9.13 nM in assay [3] (setting [6]).
On to `C[C@H](NP(=O)(OC[C@H]1O[C@@](C#N)(c2ccc3c(N)ncnn23)[C@H](O)[C@@H]1O)Oc1ccccc1)C(=O)OC1CC2(CCC2)C1` (single isomer, unassigned) [Example 44b], for which the results for the EC50 (with SARS-CoV-2; in assay [2] (setting [8]); in assay [3] (setting [9])) were 130 nM, 22.9 nM and 12.4 nM, respectively.
Regarding `CC(C)C(=O)O[C@H]1[C@@H](OC(=O)C(C)C)[C@](C#N)(c2ccc3c(N)ncnn23)O[C@@H]1COP(=O)(N[C@@H](C)C(=O)OC1CC2(CCC2)C1)Oc1ccccc1` (single isomer, unassigned) [Example 46a], the EC50 with SARS-CoV-2 (setting [5]) was found to be 249 nM; in assay [2] (setting [7]), 30.2 nM; in assay [3] (setting [6]) it was 5.59 nM.
Take `CC(C)C(=O)O[C@H]1[C@@H](OC(=O)C(C)C)[C@](C#N)(c2ccc3c(N)ncnn23)O[C@@H]1COP(=O)(N[C@@H](C)C(=O)OC1CC2(CCC2)C1)Oc1ccccc1` (single isomer, unassigned) [Example 46b]: the EC50 in the assay with SARS-CoV-2 is 400 nM; in assay [2] (setting [8]), 30 nM; in assay [3] (setting [9]), 6.63 nM.
With `CCC(=O)O[C@H]1[C@@H](OC(=O)CC)[C@](C#N)(c2ccc3c(N)ncnn23)O[C@@H]1COP(=O)(N[C@@H](C)C(=O)OCC(CC)CC)Oc1cccc2ccccc12` (single isomer, unassigned) [Example 79b], the EC50 came out at 21.6 nM in assay [4] (setting [10]), 27.8 nM in the assay with SARS-CoV-2, 45.6 nM in assay [2] (setting [7]) and 6.33 nM in assay [3] (setting [6]).
Turning to `CC(=O)O[C@H]1[C@@H](OC(C)=O)[C@](C#N)(c2ccc3c(N)ncnn23)O[C@@H]1COP(=O)(N[C@@H](C)C(=O)OC1CC2(CCC2)C1)Oc1cccc2ccccc12` (single isomer, unassigned) [Example 83a], the EC50 amounted to 21.9 nM in assay [4] (setting [10]), 49 nM with SARS-CoV-2 (setting [5]), 32.8 nM in assay [2] (setting [7]) and 6.98 nM in assay [3] (setting [6]).
Take `CC(C)C(=O)O[C@H]1[C@@H](OC(=O)C(C)C)[C@](C#N)(c2ccc3c(N)ncnn23)O[C@@H]1COP(=O)(N[C@@H](C)C(=O)OC1CC2(CCC2)C1)Oc1cccc2ccccc12` (single isomer, unassigned) [Example 86a]: the EC50 in assay [4] (human respiratory syncytial virus, HEp-2, 96 h, read-out: EC50 RSV HEP2 96, HEp-2 cells, RSV A2, MOI=4, 4 days, 96 well) came to 21.6 nM; with SARS-CoV-2, 109 nM; in assay [2] (setting [8]), 88.2 nM; in assay [3] (setting [6]), 7.93 nM.
Turning to `CC(C)C(=O)O[C@H]1[C@@H](OC(=O)C(C)C)[C@](C#N)(c2ccc3c(N)ncnn23)O[C@@H]1COP(=O)(N[C@@H](C)C(=O)OC1CC2(CCC2)C1)Oc1cccc2ccccc12` (single isomer, unassigned) [Example 86b], the EC50 was determined as 20.9 nM in assay [4] (setting [10]), 23.6 nM in the assay with SARS-CoV-2, 28.3 nM in assay [2] (setting [8]) and 9.46 nM in assay [3] (setting [9]).
For the molecule `CC(=O)O[C@H]1[C@@H](OC(C)=O)[C@](C#N)(c2ccc3c(N)ncnn23)O[C@@H]1COP(=O)(N[C@@H](C)C(=O)OCC1CC1)Oc1ccc(C(C)(C)C)cc1` (single isomer, unassigned) [Example 102b], the EC50 with SARS-CoV-2 was found to be 86 nM; in assay [1] (Table 3), 43 nM; in assay [2] (setting [8]) it was 26 nM.
With `CCC(CC)COC(=O)[C@H](C)NP(=O)(OC[C@H]1O[C@@](C#N)(c2ccc3c(N)ncnn23)[C@H](O)[C@@H]1O)Oc1ccc(C(C)(C)C)c2ccccc12` (single isomer, unassigned) [Example 170a], the EC50 with SARS-CoV-2 (setting [5]) is 960 nM; in assay [2] (setting [7]) it was 1420 nM.
For `CCC(CC)COC(=O)[C@H](C)NP(=O)(OC[C@H]1O[C@@](C#N)(c2ccc3c(N)ncnn23)[C@H](O)[C@@H]1O)Oc1ccc(C(C)(C)C)c2ccccc12` (single isomer, unassigned) [Example 170b], the figures for the EC50 (in the assay on SARS-CoV-2; in assay [2] (setting [8])) were 923 nM and 843 nM, respectively.
`CCC(CC)COC(=O)[C@H](C)NP(=O)(OC[C@H]1O[C@@](C#N)(c2ccc3c(N)ncnn23)[C@H](OC(C)=O)[C@@H]1OC(C)=O)Oc1ccc(C(C)(C)C)c2ccccc12` (single isomer, unassigned) [Example 171a]: the EC50 in the assay with SARS-CoV-2 was 931 nM; in assay [2] (setting [7]), 712 nM.
As to `CCC(CC)COC(=O)[C@H](C)NP(=O)(OC[C@H]1O[C@@](C#N)(c2ccc3c(N)ncnn23)[C@H](OC(C)=O)[C@@H]1OC(C)=O)Oc1ccc(C(C)(C)C)c2ccccc12` (single isomer, unassigned) [Example 171b], the EC50 in the assay on SARS-CoV-2 came out at 415 nM; in assay [2] (setting [8]), 537 nM.
`CCC(=O)O[C@H]1[C@@H](OC(=O)CC)[C@](C#N)(c2ccc3c(N)ncnn23)O[C@@H]1COP(=O)(N[C@@H](C)C(=O)OCC(CC)CC)Oc1ccc(C(C)(C)C)c2ccccc12` (single isomer, unassigned) [Example 172b]: the EC50 amounted to 871 nM in the assay on SARS-CoV-2 (setting [5]) and 610 nM in assay [2] (setting [8]).
As to `CCC(CC)COC(=O)[C@H](C)NP(=O)(OC[C@H]1O[C@@](C#N)(c2ccc3c(N)ncnn23)[C@H](OC(=O)C(C)C)[C@@H]1OC(=O)C(C)C)Oc1ccc(C(C)(C)C)c2ccccc12` (single isomer, unassigned) [Example 173a], the EC50 with SARS-CoV-2 (setting [5]) worked out at 10000 nM; in assay [2] (setting [7]), 822 nM.
For `CC(C)C(=O)O[C@H]1[C@@H](OC(=O)C(C)C)[C@](C#N)(c2ccc3c(N)ncnn23)O[C@@H]1COP(=O)(N[C@@H](C)C(=O)OCC1CC1)Oc1ccc(C(C)(C)C)cc1` (stereo partly drawn) [Example 104b, (2R,3R,4R,5R)-2-(4-aminopyrrolo[2,1-f][1,2,4]triazin-7-yl)-5-((((4-(tert-butyl)phenoxy)(((S)-1-(cyclopropylmethoxy)-1-oxopropan-2-yl)amino)phosphoryl)oxy)methyl)-2-cyanotetrahydrofuran-3,4-diyl bis(2-methylpropanoate)], the figures for the concentration for a half-maximal effect (EC50) (in the assay with SARS-CoV-2; in assay [1] (Table 3); in assay [2] (setting [7])) were 294 nM, 57.8 nM and 22.8 nM, respectively.
Regarding `C[C@H](NP(=O)(OC[C@H]1O[C@@](C#N)(c2ccc3c(=N)n(COP(=O)(O)OCc4ccccc4)cnn23)[C@H](O)[C@@H]1O)Oc1cccc2ccccc12)C(=O)OC1CC2(CCC2)C1` (stereo partly drawn) [Example 176, spiro[3.3]heptan-2-yl ((((2R,3S,4R,5R)-5-(3-((((benzyloxy)(hydroxy)phosphoryl)oxy)methyl)-4-imino-3,4-dihydropyrrolo[2,1-f][1,2,4]triazin-7-yl)-5-cyano-3,4-dihydroxytetrahydrofuran-2-yl)methoxy)(naphthalen-1-yloxy)phosphoryl)-L-alaninate], in assay [2] (setting [7]), the concentration for a half-maximal effect (EC50) turned out to be 153 nM.
For the molecule `C[C@H](NP(=O)(OC[C@H]1O[C@@](C#N)(c2ccc3c(=N)n(COP(=O)(O)O)cnn23)[C@H](O)[C@@H]1O)Oc1cccc2ccccc12)C(=O)OC1CC2(CCC2)C1` (stereo partly drawn) [Example 177, spiro[3.3]heptan-2-yl ((((2R,3S,4R,5R)-5-cyano-3,4-dihydroxy-5-(4-imino-3-((phosphonooxy)methyl)-3,4-dihydropyrrolo[2,1-f][1,2,4]triazin-7-yl)tetrahydrofuran-2-yl)methoxy)(naphthalen-1-yloxy)phosphoryl)-L-alaninate], the values for the EC50 (with SARS-CoV-2 (setting [5]); in assay [2] (setting [7]); in assay [3] (setting [6])) were 410 nM, 17 nM and 16 nM, respectively.
On to `CC(C)C(=O)O[C@H]1[C@@H](OC(=O)C(C)C)[C@](C#N)(c2ccc3c(=N)n(COP(=O)(O)O)cnn23)O[C@@H]1COP(=O)(N[C@@H](C)C(=O)OC1CC2(CCC2)C1)Oc1cccc2ccccc12` (stereo partly drawn) [Example 178, (2R,3R,4R,5R)-2-cyano-2-(4-imino-3-((phosphonooxy)methyl)-3,4-dihydropyrrolo[2,1-f][1,2,4]triazin-7-yl)-5-((((naphthalen-1-yloxy)(((S)-1-oxo-1-(spiro[3.3]heptan-2-yloxy)propan-2-yl)amino)phosphoryl)oxy)methyl)tetrahydrofuran-3,4-diyl bis(2-methylpropanoate)], for which the EC50 with SARS-CoV-2 (setting [5]) stood at 1370 nM; in assay [2] (setting [7]) it was 85 nM; in assay [3] (setting [6]), 12.2 nM.
Regarding `CCC(CC)COC(=O)[C@H](C)NP(=O)(OC[C@H]1O[C@@](C#N)(c2ccc3c(=N)n(COP(=O)(O)O)cnn23)[C@H](O)[C@@H]1O)Oc1ccc(C(C)(C)C)cc1` (stereo partly drawn) [Example 179, 2-ethylbutyl ((4-(tert-butyl)phenoxy)(((2R,3S,4R,5R)-5-cyano-3,4-dihydroxy-5-(4-imino-3-((phosphonooxy)methyl)-3,4-dihydropyrrolo[2,1-f][1,2,4]triazin-7-yl)tetrahydrofuran-2-yl)methoxy)phosphoryl)-L-alaninate], the figures for the EC50 (in the assay on SARS-CoV-2 (setting [5]); in assay [2] (setting [7]); in assay [3] (setting [6])) were 850 nM, 16.8 nM and 7.84 nM, respectively.
